Test results from US8916599B2, “1H-benz imidazole-5-carboxamides as anti-inflammatory agents” (Orexo AB, priority 2008, dated 2014).

Molecular target: T1, recombinant human mPGES-1 (Homo sapiens, UniProt O14684)
T1 construct: made in house; host or cells: Rosetta E. coli (microsomal/membrane fraction)
T1 sequence (O14684 1-152): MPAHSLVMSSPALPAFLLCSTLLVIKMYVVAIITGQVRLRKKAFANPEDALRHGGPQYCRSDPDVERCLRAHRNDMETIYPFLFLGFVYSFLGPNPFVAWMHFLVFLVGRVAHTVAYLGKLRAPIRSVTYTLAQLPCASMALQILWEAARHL
Assay: mPGES-1 inhibition test (microsomes, PGH2 substrate, HTRF detection of PGE2)
Assay type: biochemical
Conditions: inhibition of mPGES-1 at 1 μM (marked in cell)
How it was run: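 E. coli microsomal enzyme, 0.1 M KPi pH 7.4 + 2.5 mM GSH; cpd (DMSO) 25 min RT; PGH2 1 min; acidic FeCl2 stop. Dilute 750-fold, HTRF (d2/Eu-cryptate anti-PGE2, overnight 4 °C), 665/620 ratio vs PGE2 standard curve.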

| inhibition at 1 µM [%] | SMILES |
| --- | --- |
| 100 | O=C(Nc1cccc(Br)c1)c1ccc2[nH]c(Nc3c(Cl)cccc3Cl)nc2c1 [Example 69, 2-(2,6-Dichloro-phenylamino)-1H-benzimidazole-5-carboxylic acid (3-bromo-phenyl)-amide] |
| 93 | Cc1ccc(Cl)c(Nc2nc3cc(C(=O)NC4CCCCC4)c(F)cc3n2C)c1F [Example 623, 2-(6-Chloro-2-fluoro-3-methyl-phenylamino)-6-fluoro-N-cyclohexyl-1-methyl-1H-benzimidazole-5-carboxamide] |

Same assay, conditions: inhibition of mPGES-1 at 10 μM

| SMILES | inhibition at 10 µM [%] |
| --- | --- |
| Cn1c(Nc2c(Cl)cc(F)cc2Cl)nc2cc(C(=O)N[C@H]3CC[C@H](C(F)(F)F)CC3)ccc21 [Example 432, 2-(2,6-Dichloro-4-fluorophenylamino)-1-methyl-N-((1R,4R)-4-trifluoromethyl-cyclohexyl)-1H-benzimidazole-5-carboxamide] | 100 |
| CO[C@H]1CC[C@H](NC(=O)c2ccc3c(c2)nc(Nc2c(Cl)cccc2Cl)n3C)CC1 [Example 240, 2-(2,6-Dichloro-phenylamino)-1-methyl-1H-benzimidazole-5-carboxylic acid (trans-4-methoxy-cyclohexyl)-amide] | 80 |
| Cc1cccnc1NC(=O)c1ccc2c(c1)nc(Nc1c(Cl)cccc1Cl)n2C [Example 341, 2-(2,6-Dichloro-phenylamino)-1-methyl-1-H-benzimidazole-5-carboxylic acid (3-methyl-pyridin-2-yl)-amide] | 92 |
| O=C(Nc1nc2ccccc2[nH]1)c1ccc2[nH]c(Nc3c(Cl)cccc3Cl)nc2c1 [Example 80, 2-(2,6-Dichloro-phenylamino)-1H-benzimidazole-5-carboxylic acid (benzimidazol-2-yl)-amide] | 92 |
| Cn1c(Nc2c(Cl)cccc2Cl)nc2cc(C(=O)NC3CCC4(CC4)C3)ccc21 (centres unmarked) [Example 436, 2-(2,6-Dichlorophenylamino)-1-methyl-N-(spiro[2.4]heptan-5-yl)-1H-benzimidazole-5-carboxamide] | 99 |
| CCCCCCNC(=O)c1cc2nc(Nc3c(F)cccc3Cl)n(C)c2cc1F [Example 458, 2-(2-Chloro-6-fluorophenylamino)-6-fluoro-N-hexyl-1-methyl-1H-benzimidazole-5-carboxamide] | 99 |
| CCn1c(Nc2c(Cl)cccc2Cl)nc2cc(C(=O)Nc3cc(Cl)ccn3)ccc21 [Example 277, 2-(2,6-Dichloro-phenylamino)-1-ethyl-1H-benzimidazole-5-carboxylic acid (4-chloro-pyridin-2-yl)-amide] | 99 |
| O=C(Nc1ccc(Br)cc1)c1ccc2[nH]c(Nc3c(Cl)cccc3Cl)nc2c1 [Example 66, 2-(2,6-Dichloro-phenylamino)-1H-benzimidazole-5-carboxylic acid (4-bromo-phenyl)-amide] | 100 |

More lines, now with the values ahead:

| inhibition at 10 µM [%] | SMILES |
| --- | --- |
| 86 | COCCOc1cccc(NC(=O)c2ccc3[nH]c(Nc4c(Cl)cccc4Cl)nc3c2)n1 [Example 571, 2-(2,6-Dichlorophenylamino)-N-(6-(2-methoxyethoxy)pyridin-2-yl)-1H-benzimidazole-5-carboxamide] |
| 97 | Cn1c(Nc2c(Cl)cccc2Cl)nc2cc(C(=O)NCC3CCC3)c(F)cc21 [Example 516, N-(Cyclobutylmethyl)-2-(2,6-dichlorophenylamino)-6-fluoro-1-methyl-1H-benzimidazole-5-carboxamide] |
| 45 | CC(C)c1ccccc1Nc1nc2cc(C(=O)Nc3ccc(Br)cc3)ccc2n1C [Example 572, N-(4-Bromophenyl)-2-(2-isopropylphenylamino)-1-methyl-1H-benzimidazole-5-carboxamide] |
| 99 | O=C(NC1CCC(C(F)(F)F)CC1)c1cc2nc(Nc3c(F)ccc(Cl)c3Cl)[nH]c2cc1OCC(F)(F)F (stereo not drawn) [Example 591, 2-(2,3-Dichloro-6-fluoro-phenylamino)-6-(2,2,2-trifluoro-ethoxy)-N-(4-trans-trifluoromethyl-cyclohex-1-yl) 1H-benzimidazole-5-carboxamide] |
